pIC50: −log10 of the molar value.
What was measured:
hERG channel = target: T1, hERG channel (Homo sapiens, UniProt Q12809); test: hERG channel inhibition, automated patch clamp (IonWorks HT, hERG-CHO); assay type: cell-based; conditions: CHO cells expressing hERG, 600 s incubation; for inhibition at 600 s, 1 µM: 1 μM compound, read-out: hERG Channel Inhibition % (at 1 μM), vehicle-subtracted values; for inhibition at 600 s, 10 µM: 10 μM compound, read-out: hERG Channel Inhibition % (at 10 μM), vehicle-subtracted values
T1 construct: expressed in transfected cells; host or cells: CHO (hERG-CHO), under Geneticin selection
T1 sequence (Q12809 whole entry): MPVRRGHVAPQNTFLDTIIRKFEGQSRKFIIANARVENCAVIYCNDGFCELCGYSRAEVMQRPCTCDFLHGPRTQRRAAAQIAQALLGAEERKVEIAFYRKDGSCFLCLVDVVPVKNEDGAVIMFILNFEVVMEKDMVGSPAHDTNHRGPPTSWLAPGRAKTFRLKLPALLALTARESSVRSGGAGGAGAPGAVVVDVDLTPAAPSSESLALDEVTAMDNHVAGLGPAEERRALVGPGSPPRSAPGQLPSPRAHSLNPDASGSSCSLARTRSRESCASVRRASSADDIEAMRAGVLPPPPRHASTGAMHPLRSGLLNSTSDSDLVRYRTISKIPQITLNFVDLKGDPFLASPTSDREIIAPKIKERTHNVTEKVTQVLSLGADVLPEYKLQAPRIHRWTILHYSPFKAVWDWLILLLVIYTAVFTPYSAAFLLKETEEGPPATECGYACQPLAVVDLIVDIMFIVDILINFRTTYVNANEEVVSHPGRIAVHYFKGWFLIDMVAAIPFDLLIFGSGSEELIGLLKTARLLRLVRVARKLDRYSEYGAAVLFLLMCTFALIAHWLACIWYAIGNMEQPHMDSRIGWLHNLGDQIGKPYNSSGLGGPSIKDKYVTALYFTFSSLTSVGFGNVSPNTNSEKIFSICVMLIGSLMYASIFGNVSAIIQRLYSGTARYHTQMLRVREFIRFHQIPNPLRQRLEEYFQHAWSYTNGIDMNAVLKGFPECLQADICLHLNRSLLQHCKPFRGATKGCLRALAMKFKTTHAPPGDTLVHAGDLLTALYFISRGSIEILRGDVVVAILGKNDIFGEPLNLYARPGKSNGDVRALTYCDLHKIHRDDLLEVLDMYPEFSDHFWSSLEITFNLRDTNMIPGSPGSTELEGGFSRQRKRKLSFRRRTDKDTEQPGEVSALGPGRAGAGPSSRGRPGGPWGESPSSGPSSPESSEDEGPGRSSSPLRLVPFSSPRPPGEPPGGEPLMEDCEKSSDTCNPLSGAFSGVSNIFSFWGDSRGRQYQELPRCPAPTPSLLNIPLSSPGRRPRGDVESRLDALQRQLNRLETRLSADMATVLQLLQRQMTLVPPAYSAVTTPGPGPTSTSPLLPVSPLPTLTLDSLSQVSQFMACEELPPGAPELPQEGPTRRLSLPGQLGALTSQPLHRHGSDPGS
Experimental: Human ether-a-gogo-related (hERG) ion channel encodes the inward rectifying voltage gated potassium channel in the heart and has a major role during the repolarization of the cardiac action potential. It is well established that blockade of this ion channel can lead to potentially lethal arrhythmias. hERG pre-clinical safety data is often used by regulatory agencies in elucidate the toxicity profile of certain compositions. The disclosed compounds of Table 1 were tested for their ability to inhibit hERG ion channels.
Media components include F12 Nutrient Mixture (Ham) with GlutaMAX™ (Invitrogen, Cat#31765), Fetal Bovine Serum, Certified (Invitrogen, Cat#16000-044—not heat activated), and Geneticin® Selective Antibiotic (Invitrogen, Cat#10131-027).
One vial of frozen cells, at 1.62×10^6 cells are thawed into a T150 flask (BD Falcon 355001) with 40 mL of pre-warmed complete media. Cells are cultured at 37° C., 5% CO2 for four hours prior to gently changing media. 99% of cells appear attached at this time point.
The flask is media changed at 24 hours post-thaw, the cells are imaged, media changed, and returned to the incubator. At this point, the cells appear healthy and about 25% confluent in the flask. Cells are typically passed 24-48 hours after thaw according to the following intervals and densities below. Cells are incubated at 30° C. for 48 hours prior to assay.
Using an automated patch clamp apparatus (IonWorks^HT), a three pulse protocol was applied by stepping from a holding potential of −80 mV to […] for 2 s, to activate hERG channels. The membrane voltage was then stepped back to −50 mV for 2 s to evoke a tail current prior to returning to the holding potential for 1 s. This sequence was repeated a further two times. This voltage protocol was applied prior to drug (Pre compound) and after 600 s in the presence of drug (Post compound).
The amplitude of the hERG tail current was calculated by measuring the difference between the maximum current on stepping to −50 mV of the third pulse (i.e. peak of the outward hERG tail current) and the current measured immediately prior to activation of any hERG current. This parameter was assessed before (pre tail current amplitude) and after 600 s incubation (post tail current amplitude) in drug. In order to assess the amount of block produced by test compounds, the data was first filtered using the IonWorks™ software to exclude any cells where the seal resistance was less than 50 MOhm. The remaining data was then exported to an excel compatible data file and only currents with tail currents greater than 250 pA were analyzed. The post/pre tail current amplitude ratio for the third pulse was calculated for each drug and control, and presented as percent inhibition.

FAAH = target: T2, FAAH (Homo sapiens, UniProt O00519); test: FAAH inhibition, human brain membrane homogenate assay; assay type: biochemical; conditions: human brain homogenate; average activity; read-out: Human brain Extract FAAH IC50
T2 construct: Reactions were initiated by adding 12.5 μg of brain microsome; tissue ABS, Inc; host or cells: human brain cerebral cortex, membrane/microsome fraction pooled from 3 donors
T2 sequence (O00519 1-579): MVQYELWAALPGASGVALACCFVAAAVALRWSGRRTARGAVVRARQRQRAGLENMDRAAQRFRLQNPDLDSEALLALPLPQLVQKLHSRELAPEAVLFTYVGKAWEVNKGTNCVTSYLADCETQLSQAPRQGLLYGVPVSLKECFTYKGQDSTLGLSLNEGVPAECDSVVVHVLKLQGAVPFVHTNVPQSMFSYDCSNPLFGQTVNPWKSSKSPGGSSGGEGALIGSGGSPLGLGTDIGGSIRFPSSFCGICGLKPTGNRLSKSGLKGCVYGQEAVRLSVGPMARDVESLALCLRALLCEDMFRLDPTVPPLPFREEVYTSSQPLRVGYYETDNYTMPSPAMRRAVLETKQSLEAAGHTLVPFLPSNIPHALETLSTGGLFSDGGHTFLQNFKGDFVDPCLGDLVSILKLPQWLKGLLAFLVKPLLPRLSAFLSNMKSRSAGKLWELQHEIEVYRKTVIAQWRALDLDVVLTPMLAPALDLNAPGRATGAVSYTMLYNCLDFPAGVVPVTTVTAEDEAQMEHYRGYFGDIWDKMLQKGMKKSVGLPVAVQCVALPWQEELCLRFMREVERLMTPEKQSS

Row | SMILES | inhibition at 600 s, 1 µM (hERG channel) | inhibition at 600 s, 10 µM (hERG channel) | pIC50 (FAAH)
1 | COc1cc(NC(=O)C(=O)c2c(C)n(Cc3ccc(Cl)cc3)c3ccc(OC(C)=O)cc23)ccn1 [Compound 1, 1-(4-chlorobenzyl)-3-(2-(2-methoxypyridin-4-ylamino)-2-oxoacetyl)-2-methyl-1H-indol-5-yl acetate] | < 25% | < 25% | > 7.00
2 | COc1cc(NC(=O)C(=O)c2c(C)n(Cc3ccc(Cl)cc3)c3ccc(O)cc23)ccn1 [Compound 2, 2-(1-(4-chlorobenzyl)-5-hydroxy-2-methyl-1H-indol-3-yl)-N-(2-methoxypyridin-4-yl)-2-oxoacetamide] | < 25% | < 25% | > 7.00
3 | COc1cc(NC(=O)C(=O)c2c(C)n(Cc3ccc(Cl)cc3)c3ccc(C(C)=O)cc23)ccn1 [Compound 5, 2-(5-acetyl-1-(4-chlorobenzyl)-2-methyl-1H-indol-3-yl)-N-(2-methoxypyridin-4-yl)-2-oxoacetamide] | < 25% | 25 to 50% | > 7.00
4 | COc1cc(NC(=O)C(=O)c2c(C)n(Cc3ccc(Cl)cc3)c3ccc(CO)cc23)ccn1 [Compound 8, 2-(1-(4-chlorobenzyl)-5-(hydroxymethyl)-2-methyl-1H-indol-3-yl)-N-(2-methoxypyridin-4-yl)-2-oxoacetamide] | – | – | > 7.00
5 | COc1cc(NC(=O)C(=O)c2c(C)n(Cc3ccc(Cl)cc3)c3ccc(COC(C)=O)cc23)ccn1 [Compound 10, (1-(4-chlorobenzyl)-3-(2-(2-methoxypyridin-4-ylamino)-2-oxoacetyl)-2-methyl-1H-indol-5-yl)methyl acetate] | – | – | > 7.00
6 | CCN(CC)c1ccc2c(c1)c(C(=O)C(=O)Nc1ccnc(OC)c1)c(C)n2Cc1ccc(Cl)cc1 [Compound 24, 2-(1-(4-chlorobenzyl)-5-(diethylamino)-2-methyl-1H-indol-3-yl)-N-(2-methoxypyridin-4-yl)-2-oxoacetamide] | – | – | 5.00 to 6.00
7 | CNCc1ccc2c(c1)c(C(=O)C(=O)Nc1ccnc(OC)c1)c(C)n2Cc1ccc(Cl)cc1 [Compound 25, 2-(1-(4-chlorobenzyl)-2-methyl-5-((methylamino)methyl)-1H-indol-3-yl)-N-(2-methoxypyridin-4-yl)-2-oxoacetamide] | – | – | 6.00 to 7.00
8 | COc1cc(NC(=O)C(=O)c2c(C)n(Cc3ccc(Cl)cc3)c3ccc(CN(C)C)cc23)ccn1 [Compound 26, 2-(1-(4-chlorobenzyl)-5-((dimethylamino)methyl)-2-methyl-1H-indol-3-yl)-N-(2-methoxypyridin-4-yl)-2-oxoacetamide] | – | – | 6.00 to 7.00
9 | C=Cc1ccc2c(c1)c(C(=O)C(=O)Nc1ccnc(OC)c1)c(C)n2Cc1ccc(Cl)cc1 [Compound 27, 2-(1-(4-chlorobenzyl)-2-methyl-5-vinyl-1H-indol-3-yl)-N-(2-methoxypyridin-4-yl)-2-oxoacetamide] | – | – | > 7.00
10 | COc1cnc2c(c1)c(C(=O)C(=O)Nc1ccnc(OC)c1)c(C)n2Cc1ncc(Cl)cc1Cl [Compound 29, 2-(1-((3,5-dichloropyridin-2-yl)methyl)-5-methoxy-2-methyl-1H-pyrrolo[2,3-b]pyridin-3-yl)-N-(2-methoxypyridin-4-yl)-2-oxoacetamide] | – | – | > 7.00
11 | COc1cc(NC(=O)C(=O)c2c(C)n(Cc3ccc(Cl)cc3)c3cnccc23)ccn1 [Compound 35, 2-(1-(4-chlorobenzyl)-2-methyl-1H-pyrrolo[2,3-c]pyridin-3-yl)-N-(2-methoxypyridin-4-yl)-2-oxoacetamide] | – | – | 6.00 to 7.00
12 | COc1ccc2c(c1)c(C(=O)C(=O)Nc1ccnc(OC)c1)c(C)n2Cc1ccc(S(C)(=O)=O)cc1 [Compound 39, 2-(5-methoxy-2-methyl-1-(4-(methylsulfonyl)benzyl)-1H-indol-3-yl)-N-(2-methoxypyridin-4-yl)-2-oxoacetamide] | – | – | 5.00 to 6.00
13 | COc1ccc2c(c1)c(C(=O)C(=O)Nc1ccnc(O)c1)c(C)n2Cc1ccc(Cl)cc1 [Compound 50, 2-(1-(4-chlorobenzyl)-5-methoxy-2-methyl-1H-indol-3-yl)-N-(2-hydroxypyridin-4-yl)-2-oxoacetamide] | – | – | 5.00 to 6.00
14 | COc1cc(NC(=O)C(=O)c2c(C)n(Cc3ccc(Cl)cc3)c3ccc(OC)c(OC)c23)ccn1 [Compound 56, 2-(1-(4-chlorobenzyl)-4,5-dimethoxy-2-methyl-1H-indol-3-yl)-N-(2-methoxypyridin-4-yl)-2-oxoacetamide] | – | – | 6.00 to 7.00
15 | COc1cc(NC(=O)C(=O)c2c(C)n(Cc3ccc(Cl)cc3)c3ccc(OC)c(Cl)c23)ccn1 [Compound 58, 2-(4-chloro-1-(4-chlorobenzyl)-5-methoxy-2-methyl-1H-indol-3-yl)-N-(2-methoxypyridin-4-yl)-2-oxoacetamide] | – | – | > 7.00
16 | COc1cc(NC(=O)C(=O)c2c(C)n(Cc3ccc(Cl)cn3)c3ccc([N+](=O)[O-])cc23)ccn1 [Compound 62, 2-(1-((5-chloropyridin-2-yl)methyl)-2-methyl-5-nitro-1H-indol-3-yl)-N-(2-methoxypyridin-4-yl)-2-oxoacetamide] | – | – | > 7.00
17 | COc1cc(NC(=O)C(=O)c2c(C)n(Cc3ccc(Cl)cn3)c3ccc(N)cc23)ccn1 [Compound 65, 2-(5-amino-1-((5-chloropyridin-2-yl)methyl)-2-methyl-1H-indol-3-yl)-N-(2-methoxypyridin-4-yl)-2-oxoacetamide] | – | – | 6.00 to 7.00
18 | COc1cc(NC(=O)C(=O)c2c(C)n(Cc3ccc(Cl)cn3)c3ccc(N(C)C)cc23)ccn1 [Compound 66, 2-(1-((5-chloropyridin-2-yl)methyl)-5-(dimethylamino)-2-methyl-1H-indol-3-yl)-N-(2-methoxypyridin-4-yl)-2-oxoacetamide] | – | – | > 7.00
19 | COc1cc(NC(=O)C(=O)c2c(C)n(Cc3ccc(Cl)cc3)c3ccc(N)c(Cl)c23)ccn1 [Compound 73, 2-(5-amino-4-chloro-1-(4-chlorobenzyl)-2-methyl-1H-indol-3-yl)-N-(2-methoxypyridin-4-yl)-2-oxoacetamide] | – | – | 6.00 to 7.00
20 | COc1cc(NC(=O)C(=O)c2c(C)n(Cc3ccc(Cl)cc3)c3cc(C)c(OC)cc23)ccn1 [Compound 74, 2-(1-(4-chlorobenzyl)-5-methoxy-2,6-dimethyl-1H-indol-3-yl)-N-(2-methoxypyridin-4-yl)-2-oxoacetamide] | – | – | > 7.00
21 | COc1cc(NC(=O)C(=O)c2c(C)n(Cc3ccc(Cl)cn3)c3ncc(C)cc23)ccn1 [Compound 75, (1-((5-chloropyridin-2-yl)methyl)-2,5-dimethyl-1H-pyrrolo[2,3-b]pyridin-3-yl)-N-(2-methoxypyridin-4-yl)-2-oxoacetamide] | – | – | > 7.00
22 | COc1cc(NC(=O)C(=O)c2c(C)n(Cc3ccc(Cl)cc3)c3ncc(C)cc23)ccn1 [Compound 76, 2-(1-(4-chlorobenzyl)-2,5-dimethyl-1H-pyrrolo[2,3-b]pyridin-3-yl)-N-(2-methoxypyridin-4-yl)-2-oxoacetamide] | – | – | > 7.00
23 | COc1cc(NC(=O)C(=O)c2c(C)n(Cc3ccc(Cl)cn3)c3cc(C)c(OC)cc23)ccn1 [Compound 95, 2-(1-((5-chloropyridin-2-yl)methyl)-5-methoxy-2,6-dimethyl-1H-indol-3-yl)-N-(2-methoxypyridin-4-yl)-2-oxoacetamide] | – | – | > 7.00
